Measured values reported in patent publication US8614205B2, “Glutamate receptor modulators and therapeutic agents” (priority 2009, dated 2013).
Several values for one entry are separate records, joined by “and”; a condition that tells them apart may be missing. Equal values may be shown once.

Experiments:
mGluR1 = biological target: T1, mGluR1 (Homo sapiens, UniProt Q13255); assay: aequorin calcium assay, negative allosteric modulation of mGluR1; format: cell-based; conditions: for EC50: aequorin assay, agonist at EC80, 10000 = no activity observed at 10,000 nM; for mGluR1/mGluR5 Ratio: EC50 for mGluR1 divided by EC50 for mGluR5
T1 construct: expression induced with doxycycline
T1 sequence (Q13255 19-1194): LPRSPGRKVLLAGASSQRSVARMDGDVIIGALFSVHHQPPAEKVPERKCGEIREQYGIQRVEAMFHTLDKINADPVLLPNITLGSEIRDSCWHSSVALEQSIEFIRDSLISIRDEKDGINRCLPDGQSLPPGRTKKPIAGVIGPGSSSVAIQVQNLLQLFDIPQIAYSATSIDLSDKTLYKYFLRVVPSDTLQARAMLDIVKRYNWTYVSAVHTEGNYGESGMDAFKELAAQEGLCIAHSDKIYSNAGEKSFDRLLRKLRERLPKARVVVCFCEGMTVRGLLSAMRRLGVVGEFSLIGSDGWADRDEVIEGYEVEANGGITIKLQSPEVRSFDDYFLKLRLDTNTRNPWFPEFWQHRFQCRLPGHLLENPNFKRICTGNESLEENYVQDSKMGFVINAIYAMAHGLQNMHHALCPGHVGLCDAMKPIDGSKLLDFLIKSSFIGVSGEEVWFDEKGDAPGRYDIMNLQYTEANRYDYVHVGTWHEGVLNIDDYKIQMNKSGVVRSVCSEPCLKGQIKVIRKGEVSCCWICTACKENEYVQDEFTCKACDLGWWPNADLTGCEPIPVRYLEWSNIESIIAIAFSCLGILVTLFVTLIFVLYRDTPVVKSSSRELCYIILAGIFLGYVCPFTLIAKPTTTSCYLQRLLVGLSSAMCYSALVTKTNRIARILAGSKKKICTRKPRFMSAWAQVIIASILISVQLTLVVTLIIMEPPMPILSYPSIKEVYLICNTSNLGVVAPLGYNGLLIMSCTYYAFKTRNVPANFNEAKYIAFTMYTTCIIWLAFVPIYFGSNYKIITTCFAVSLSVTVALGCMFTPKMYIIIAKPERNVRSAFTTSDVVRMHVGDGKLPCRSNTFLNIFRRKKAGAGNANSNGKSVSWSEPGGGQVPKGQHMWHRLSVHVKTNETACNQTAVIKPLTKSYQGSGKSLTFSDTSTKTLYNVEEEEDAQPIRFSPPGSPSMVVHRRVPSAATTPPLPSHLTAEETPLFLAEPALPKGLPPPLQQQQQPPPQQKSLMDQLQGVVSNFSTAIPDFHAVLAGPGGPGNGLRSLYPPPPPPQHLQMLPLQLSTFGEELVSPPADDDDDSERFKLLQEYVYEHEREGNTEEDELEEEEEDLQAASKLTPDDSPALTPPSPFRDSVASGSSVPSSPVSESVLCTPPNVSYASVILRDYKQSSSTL
Description: (§1) The ability of test compound to ameliorate the efflux of calcium cations (Ca^++) in the presence of agonist (glutamate or quisqualate) is measured by detection of light emitted by the luminescent protein aequorin triggered by binding of Ca^++. Aequorin is a photoprotein isolated from luminescent jellyfish (like various Aequorea species e.g. Aequorea victoria). Aequorin is composed of two distinct units, the apoprotein apoaequorin, with an approximate molecular weight of 22 kDa, and the prosthetic group, coelenterazine, responsible for emission of light. In the presence of molecular oxygen the two components of aequorin assemble spontaneously, forming the functional protein. Four EF-hand type regions have been identified in the structure of Aequorin and at least 3 of them function as binding sites for Ca+2 ions: Ca+2 binding to these EF hands triggers a conformational change of the protein, that leads it to oxidize its prosthetic group, coelenterazine, into excited coelenteramide and CO2. As the excited coelenteramide relaxes to the ground state, blue light (wavelength=469 nm) is emitted and can be measured by a luminometer. Negative allosteric modulator activity of test compound is expressed as a percentage of the stimulation of reference agonist (glutamate) activity at its EC80 concentration. Assay of Compounds was performed at Euroscreen SA, Gosselies, Belgium.
(§2) Cells stably transfected with mGlu1 or mGlu5 were grown 18 hours prior to the test in culture medium containing 600 ng/ml doxycycline, then were detached by gentle flushing with PBS-EDTA, recovered by centrifugation and resuspended in “assay buffer” (HBSS, 2.1 mM CaCl2, 3 μg/ml GPT (Glutamate-Pyruvate transaminase), 4 mM MEM Sodium Pyruvate, 0.1% BSA, protease free). Cells were incubated at room temperature for at least 4 h with coelenterazine-h. Dose response curves were performed using mGluR1 cells with the orthosteric agonist glutamate and negative allosteric modulator JNJ16259685. Dose response curves were performed using mGluR5 cells with the orthosteric agonist glutamate and negative allosteric modulator MPEP. For agonist testing, 30 μl of cell suspension were mixed with 30 μl of test compound or reference agonist in a 384-well plate. The resulting emission of light was recorded using the Hamamatsu Functional Drug Screening System 6000 (FDSS 6000). For negative allosteric modulator testing, 60 μl of the resulting cell suspension containing the test compound was mixed with 30 μl of the reference agonist at EC80 following an incubation of 3 min after the first injection. The resulting emission of light was recorded using FDSS 6000. […] Plates also contained the reference agonist at a concentration equivalent to the EC80 obtained during the test validation. Negative allosteric modulator activity of test compound was expressed as a percentage of the stimulation of reference agonist activity at its EC80 concentration.

mGluR5 = biological target: T2, mGluR5 (Homo sapiens, UniProt P41594); assay: aequorin calcium assay, negative allosteric modulation of mGluR5; format: cell-based; conditions: aequorin assay, agonist at EC80; 10000 = no activity observed at 10,000 nM; read-out: mGluR5 EC50
T2 construct: expression induced with doxycycline
T2 sequence (P41594 21-1212): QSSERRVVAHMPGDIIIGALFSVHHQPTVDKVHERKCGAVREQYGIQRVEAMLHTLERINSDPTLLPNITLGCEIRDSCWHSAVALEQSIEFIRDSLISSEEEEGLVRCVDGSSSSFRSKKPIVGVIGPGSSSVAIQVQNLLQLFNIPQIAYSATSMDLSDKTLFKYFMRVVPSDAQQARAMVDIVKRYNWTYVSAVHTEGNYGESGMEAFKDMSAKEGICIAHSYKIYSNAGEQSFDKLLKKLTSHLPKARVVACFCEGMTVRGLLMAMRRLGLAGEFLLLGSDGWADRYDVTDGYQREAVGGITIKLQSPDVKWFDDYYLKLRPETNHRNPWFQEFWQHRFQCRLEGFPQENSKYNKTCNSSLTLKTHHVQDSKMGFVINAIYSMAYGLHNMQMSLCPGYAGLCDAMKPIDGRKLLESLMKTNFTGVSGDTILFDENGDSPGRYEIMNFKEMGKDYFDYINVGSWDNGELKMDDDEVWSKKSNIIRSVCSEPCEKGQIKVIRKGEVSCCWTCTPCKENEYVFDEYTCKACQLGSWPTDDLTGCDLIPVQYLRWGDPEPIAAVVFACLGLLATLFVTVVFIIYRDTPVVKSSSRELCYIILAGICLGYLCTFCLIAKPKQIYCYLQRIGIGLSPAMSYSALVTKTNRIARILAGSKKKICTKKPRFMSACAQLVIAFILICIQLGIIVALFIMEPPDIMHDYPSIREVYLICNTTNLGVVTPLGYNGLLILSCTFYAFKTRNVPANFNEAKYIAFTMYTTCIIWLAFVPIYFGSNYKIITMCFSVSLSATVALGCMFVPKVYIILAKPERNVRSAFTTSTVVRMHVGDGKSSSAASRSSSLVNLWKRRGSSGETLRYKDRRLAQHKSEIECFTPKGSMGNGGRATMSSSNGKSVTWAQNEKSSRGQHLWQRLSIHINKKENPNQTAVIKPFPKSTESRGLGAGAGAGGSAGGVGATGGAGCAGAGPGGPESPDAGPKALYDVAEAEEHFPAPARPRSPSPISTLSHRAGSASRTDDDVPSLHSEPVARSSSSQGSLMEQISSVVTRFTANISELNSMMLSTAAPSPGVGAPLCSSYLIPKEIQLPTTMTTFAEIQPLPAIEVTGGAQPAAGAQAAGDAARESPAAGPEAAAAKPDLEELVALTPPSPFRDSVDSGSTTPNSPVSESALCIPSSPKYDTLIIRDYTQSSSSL
Description: as §1, §2

[1] = system: hyperalgesia in partial sciatic nerve ligation rat; assay: partial sciatic nerve ligation (PSN) model of neuropathic pain, paw withdrawal method; format: in vivo; conditions: 100 μg intrathecal; for % MPE (0-100) 1 hr / Paw withdrawal thresholds (g; raw data) 1 hr / Raw MPE (%) 1 hr / % MPE (0-100) 3 hrs / Paw withdrawal thresholds (g; raw data) 3 hrs / Raw MPE (%) 3 hrs / % MPE (0-100) 5 hrs / Paw withdrawal thresholds (g; raw data) 5 hrs / Raw MPE (%) 5 hrs / % MPE (0-100) 24 hrs / Paw withdrawal thresholds (g; raw data) 24 hrs / Raw MPE (%) 24 hrs: PSN Sx rat
Description: Briefly, under gas anesthesia, the skin and muscles of the thigh were reflected to expose the sciatic nerve. About one-third to one-half of the cross-sectional area of the nerve was tightly ligated using a 7-0 nylon suture. The incision was closed in layers (suture for muscle, surgical adhesive for skin). […] Treated rats were assayed at 1, 3, 5, and 24 hr using the paw withdrawal method (L. Randall and J. Selitto, 1957, Arch. Int. Pharmacodynam., 111:409-19). […] The Partial sciatic nerve ligation assay was performed at Eurofins/Product Safety Laboratories (Dayton, N.J.).
Animals were housed in cages which conform to the size recommendations in the most recent NIH Guide for the Care and Use of Laboratory Animals. […] The animals were fed Purina Rodent Chow #5012. The animals were acclimated to the facility for 7 days prior to the study. A pre-operative baseline paw withdrawal measure was collected for all rats. […] After recovery, a pre-dosing baseline paw withdrawal threshold was collected for all rats. […] Rats were lightly anesthetized and treated with test article or vehicle. Paw withdrawal thresholds were determined at one, three, five, and 24 hours post dosing. […] Briefly, under gas anesthesia, the skin and muscles of the thigh were reflected to expose the sciatic nerve. About one third to one half of the cross-sectional area of the nerve was tightly ligated using a 7-0 nylon suture. The incision was closed in layers (suture for muscle, surgical adhesive for skin). Test article or vehicle was administered by transcutaneous injection (C. Mestre et al., 1994, J. Pharm. Tox. Meth., 32:197-200). Briefly, the rat was lightly anesthetized and placed to flex the lower lumbar vertebrae. After palpating the vertebral processes, a 26 gauge needle was inserted through a vertebral interspace. The presence of a tail flick was considered validation of the needle placement; the solution was then injected. Paw withdrawal thresholds were assessed using a paw pressure device (L. O. Randall & J. J. Selitto, 1957, Arch. Int. Pharmacodyn., 111:409-19). The behavioral endpoint was defined as paw withdrawal. Data was analyzed by two-way analysis of variance (repeated measures) with Bonferroni tests at individual time points. Paw withdrawal threshold raw values were used for the analysis, and each route of administration was analyzed separately. Vehicle-treated groups were used as the statistical comparison groups.

CC(C)(C)OC(=O)[C@@H]1CCCN1C(=O)Oc1ccc(Cl)cc1C(=O)Nc1ccc([N+](=O)[O-])cc1Cl [Compound 26]
EC50 (mGluR1): > 10 µM | EC50 (mGluR5): > 10 µM

Cc1cccc(NC(=O)c2cc(Cl)ccc2O)c1 [Compound 8]
mGluR1/mGluR5 Ratio (mGluR1): 28.40 | EC50 (mGluR1): 2.39 µM | EC50 (mGluR5): 0.084 µM

CCc1cccc(NC(=O)c2cc(Cl)ccc2O)c1 [Compound 12, 5-Chloro-2-hydroxy-N-(3-ethylphenyl)benzamide]
mGluR1/mGluR5 Ratio (mGluR1): 6.36 | EC50 (mGluR1): 0.859 µM | EC50 (mGluR5): 0.135 µM

O=C(Nc1ccc([N+](=O)[O-])cc1Cl)c1ccccc1O [Compound 4, N-(2-chloro-4-nitrophenyl)-2 hydroxybenzamide]
mGluR1/mGluR5 Ratio (mGluR1): 1.73 | EC50 (mGluR1): 0.29 µM | EC50 (mGluR5): 0.168 µM

O=C(Nc1ccc([N+](=O)[O-])cc1Cl)c1cc(Cl)ccc1OC(=O)N1CCC[C@H]1C(=O)O [Compound 27]
EC50 (mGluR1): > 10 µM | EC50 (mGluR5): > 10 µM

CN(C)C(=O)Oc1ccc(Cl)cc1C(=O)Nc1ccc([N+](=O)[O-])cc1Cl [Compound 23, 4-chloro-2-(2-chloro-4-nitrophenylcarbamoyl)phenyl dimethyl carbamate]
EC50 (mGluR1): > 10 µM | EC50 (mGluR5): > 10 µM

N#Cc1cccc(NC(=O)c2cc(Cl)ccc2O)c1 [Compound 16, 5-Chloro-N-(3-cyanophenyl)-2-hydroxybenzamide]
mGluR1/mGluR5 Ratio (mGluR1): 42.55 | EC50 (mGluR1): > 10 µM | EC50 (mGluR5): 0.235 µM

CC(C)(C)c1cccc(NC(=O)c2cc(Cl)ccc2O)c1 [Compound 18, 5-Chloro-N-(3-tert-butylphenyl)-2-hydroxybenzamide]
mGluR1/mGluR5 Ratio (mGluR1): 1.40 | EC50 (mGluR1): 0.334 µM | EC50 (mGluR5): 0.238 µM

C#Cc1cccc(NC(=O)c2cc(Cl)ccc2O)c1 [Compound 10]
mGluR1/mGluR5 Ratio (mGluR1): 7.64 | EC50 (mGluR1): 0.932 µM | EC50 (mGluR5): 0.122 µM

NCC1(CC(=O)O)CCCCC1 [Gabapentin, gabapentin, reference compound]
% MPE (0-100) 1 hr ([1]; group Average (N 6)): 63.2% | Paw withdrawal thresholds (g; raw data) 1 hr ([1]; group Average (N 6)): 165.0 g | Raw MPE (%) 1 hr ([1]; group Average (N 6)): 77.4% | % MPE (0-100) 1 hr ([1]; individual rat): 53.9% and 100.0% (3×) and 0.8% and 24.4% | Paw withdrawal thresholds (g; raw data) 1 hr ([1]; individual rat): 145 g and 250 g and 190 g and 100 g and 120 g and 185 g | Raw MPE (%) 1 hr ([1]; individual rat): 53.9% and 177.6% and 106.9% and 0.8% and 24.4% and 101.0% | % MPE (0-100) 3 hrs ([1]; group Average (N 6)): 43.5% | Paw withdrawal thresholds (g; raw data) 3 hrs ([1]; group Average (N 6)): 134.2 g | Raw MPE (%) 3 hrs ([1]; group Average (N 6)): 47.7% | % MPE (0-100) 3 hrs ([1]; individual rat): 0.0% (2×) and 34.6% (2×) and 91.7% and 100.0% | Paw withdrawal thresholds (g; raw data) 3 hrs ([1]; individual rat): 70 g and 125 g (2×) and 90 g and 165 g and 230 g | Raw MPE (%) 3 hrs ([1]; individual rat): −43.8% and 34.6% (2×) and −15.3% and 91.7% and 184.4% | % MPE (0-100) 5 hrs ([1]; group Average (N 6)): 17.4% | Paw withdrawal thresholds (g; raw data) 5 hrs ([1]; group Average (N 6)): 96.7 g | Raw MPE (%) 5 hrs ([1]; group Average (N 6)): −0.6% | % MPE (0-100) 5 hrs ([1]; individual rat): 0.0% (3×) and 43.6% and 3.8% and 56.9% | Paw withdrawal thresholds (g; raw data) 5 hrs ([1]; individual rat): 60 g and 130 g and 85 g and 100 g and 140 g and 65 g | Raw MPE (%) 5 hrs ([1]; individual rat): −49.3% and 43.6% and −16.1% and 3.8% and 56.9% and −42.7% | % MPE (0-100) 24 hrs ([1]; group Average (N 6)): 16.4% | Paw withdrawal thresholds (g; raw data) 24 hrs ([1]; group Average (N 6)): 98.3 g | Raw MPE (%) 24 hrs ([1]; group Average (N 6)): 6.7% | % MPE (0-100) 24 hrs ([1]; individual rat): 0.0% (3×) and 23.3% and 58.7% and 16.2% | Paw withdrawal thresholds (g; raw data) 24 hrs ([1]; individual rat): 85 g and 110 g and 80 g and 75 g and 135 g and 105 g | Raw MPE (%) 24 hrs ([1]; individual rat): −12.1% and 23.3% and −19.2% and −26.3% and 58.7% and 16.2% | reversing hyperalgesia ([1]; rat): effective in reversing hyperalgesia

O=C(Nc1cccc(C(F)(F)F)c1)c1cc(Cl)ccc1O [Compound 13]
mGluR1/mGluR5 Ratio (mGluR1): 2.15 | EC50 (mGluR1): 0.273 µM | EC50 (mGluR5): 0.127 µM

O=C(Nc1ccc([N+](=O)[O-])cc1Cl)c1cc(Cl)cc(Cl)c1O [Compound 2, 3,5-dichoro-N-(2-chloro-4-nitrophenyl)-2 hydroxybenzamide]
mGluR1/mGluR5 Ratio (mGluR1): 2.36 | EC50 (mGluR1): 1.58 µM | EC50 (mGluR5): 0.669 µM

Cc1cc(C)cc(NC(=O)c2cc(Cl)ccc2O)c1 [Compound 19]
mGluR1/mGluR5 Ratio (mGluR1): 9.39 | EC50 (mGluR1): 1.14 µM | EC50 (mGluR5): 0.122 µM

O=C(Nc1cccc(Cl)c1)c1cc(Cl)ccc1O [Compound 14]
mGluR1/mGluR5 Ratio (mGluR1): 4.15 | EC50 (mGluR1): 0.523 µM | EC50 (mGluR5): 0.126 µM

O=C(Nc1cccc(Br)c1)c1cc(Cl)ccc1O [Compound 9]
mGluR1/mGluR5 Ratio (mGluR1): 2.77 | EC50 (mGluR1): 0.459 µM | EC50 (mGluR5): 0.166 µM

O=C(Nc1ccccc1)c1cc(Cl)ccc1O [Compound 6]
mGluR1/mGluR5 Ratio (mGluR1): 4.16 | EC50 (mGluR1): 3.04 µM | EC50 (mGluR5): 0.731 µM

O=C(Nc1cc(C(F)(F)F)cc(C(F)(F)F)c1)c1cc(Cl)ccc1O [Compound 20]
mGluR1/mGluR5 Ratio (mGluR1): 1.22 | EC50 (mGluR1): 0.111 µM | EC50 (mGluR5): 0.091 µM

O=C(Nc1cccc(F)c1)c1cc(Cl)ccc1O [Compound 17]
mGluR1/mGluR5 Ratio (mGluR1): 4.33 | EC50 (mGluR1): 0.598 µM | EC50 (mGluR5): 0.138 µM

O=C(Nc1ccc(Cl)c(Cl)c1)c1cc(Cl)ccc1O [Compound 5]
mGluR1/mGluR5 Ratio (mGluR1): 1.99 | EC50 (mGluR1): 0.179 µM | EC50 (mGluR5): 0.09 µM

COC(=O)[C@@H]1CCCN1C(=O)Oc1ccc(Cl)cc1C(=O)Nc1ccc([N+](=O)[O-])cc1Cl [Compound 25]
EC50 (mGluR1): > 10 µM | EC50 (mGluR5): > 10 µM

C=Cc1cccc(NC(=O)c2cc(Cl)ccc2O)c1 [Compound 11, 5-Chloro-2-hydroxy-N-(3-vinylphenyl)benzamide]
mGluR1/mGluR5 Ratio (mGluR1): 7.73 | EC50 (mGluR1): 0.371 µM | EC50 (mGluR5): 0.048 µM
